Results taken from patent publication US20220257752A1, “NEW USE OF CYCLIC DINUCLEOTIDES” (priority 2019, published 2022).

B1: OVA: ovalbumin antigen (EndoGrade, Hyglos) given without adjuvant (protein, UniProt P01012 2-386, looked up)
Ovalbumin: GSIGAASMEFCFDVFKELKVHHANENIFYCPIAIMSALAMVYLGAKDSTRTQINKVVRFDKLPGFGDSIEAQCGTSVNVHSSLRDILNQITKPNDVYSFSLASRLYAEERYPILPEYLQCVKELYRGGLEPINFQTAADQARELINSWVESQTNGIIRNVLQPSSVDSQTAMVLVNAIVFKGLWEKAFKDEDTQAMPFRVTEQESKPVQMMYQIGLFRVASMASEKMKILELPFASGTMSMLVLLPDEVSGLEQLESIINFEKLTEWTSSNVMEERKIKVYLPRMKMEEKYNLTSVLMAMGITDVFSSSANLSGISSAESLKISQAVHAAHAEINEAGREVVGSAEAGVDAASVSEEFRADHPFLFCIKHIATNAVLFFGRCVSP

Columns and labels:
OVA-specific IgG = assay type: in vivo, mice; conditions: versus OVA alone, PBS and R848
[1] = system: human adult peripheral blood; test: In vitro assay using human adult blood: cytokines in supernatant (multiplex array, IL-1β ELISA); assay type: cell-based
Source text: (§1) Adult peripheral blood for controls was collected from healthy volunteers. Cord blood was obtained by needle puncture of the umbilical cord vein right after delivery of healthy newborn donors at the Women's Clinic (Braunschweig Central Hospital). Signed informed consent from parents was obtained, ensuring that no ulterior modification of the genetic material contained or therapeutic use was involved in our study. Citrate anti-coagulated cord blood bags (Macopharma, France) were stored at room temperature before the in vitro assays.
(§2) Adult or cord blood was mixed 1:1 with 37° C. warm RPMI 1640 medium (Gibco) and incubated with adjuvants and controls according to previously described method (Dowling, D. J., et. al., 2013, PLoS One 8 (3):e58164.). Briefly, 20 μl of the adjuvants 10× were added to 180 μl of diluted blood in quadruplicates (in a 96 U shape well plate), and incubated at 37° C., 5% CO2 for 6 h. Supernatant fluids were assayed by flow cytometry in multiplex arrays (Biolegend) or in an ELISA reader for IL-1β (eBioscience).
(§3) One of the well-established methods to assess adjuvant immunogenicity in human neonates is the use of cord blood as a surrogate (Dowling, D. J., et. al., 2013, PLoS One 8 (3):e58164. doi:). Therefore, to assess the secretory cytokine profile elicited by CDA in neonates, we incubated cord and adult blood in the presence of adjuvants and controls for 6 h. A bead-based multiplexed immunoassay array was employed in order to detect cytokines in the supernatant. […] Remarkably, CDA increased the secretion of Th1 cytokines, which are important to counteract the Th2 bias present at birth (Debock, I., et. al., 2013, J Immunol 191 (3):1231-9. doi: 10.4049/jimmunol.1203288).

[2] = system: H1N1 PR8 influenza A/WSN/33 (WSN)-OVA(I) strain; assay type: in vivo, mice
human cord blood = test: In vitro assay using human cord blood: cytokines in supernatant (multiplex array, IL-1β ELISA); assay type: cell-based
Source text: as §1, §2, §3

[3] = system: H1N1 influenza A/WSN/33 (WSN)-OVA(I) strain; assay type: in vivo, mice; conditions: mouse, in vivo

| Molecule | OVA-specific IgG titers in sera (OVA-specific IgG) | IL-6, IL-21 and IL-10 (Tfh profile cytokines) concentrations ([1]; 6 h incubation) | TNF-α and IFN-γ (Th1 cytokines) concentrations in supernatant ([1]; 6 h incubation, compared to R848 or medium) | stimulation of cytokines produced by Th2 and Th17 cells ([1]; compared to R848 treatment and control cells) | IL-9 ([1]; over the other treatments) | IL-1β (pro-inflammatory cytokine) by ELISA ([1]; with respect to R848) | protection conferred ([2]; mouse, in vivo) | protective CTL response against influenza virus expressing a CD8 restricted epitope ([2]; mouse, in vivo) | differences in protection during the 48 h of maximal weight loss ([2]; versus the other adjuvants and controls, unpaired t test p≤0.05) | Th17 cytokines (human cord blood; after treatment, blood type not given) | IL-9 (human cord blood; cord blood samples) | IL-6, IL-21 and IL-10 (Tfh profile cytokines) concentrations (human cord blood; cord blood, 6 h incubation) | TNF-α and IFN-γ (Th1 cytokines) concentrations in supernatant (human cord blood; cord blood, 6 h incubation, compared to R848 or medium) | stimulation of cytokines produced by Th2 and Th17 cells (human cord blood; cord blood, compared to R848 treatment and control cells) | IL-1β (pro-inflammatory cytokine) by ELISA (human cord blood; cord blood, with respect to R848) | body weight over 14 days after challenge [3] | deaths after challenge ([2]; mouse, in vivo) |
| --- | --- | --- | --- | --- | --- | --- | --- | --- | --- | --- | --- | --- | --- | --- | --- | --- | --- |
| Nc1ncnc2c1ncn2[C@@H]1O[C@@H]2COP(=O)(O)O[C@H]3[C@@H](O)[C@H](n4cnc5c(N)ncnc54)O[C@@H]3COP(=O)(O)O[C@H]2[C@H]1O [CDA, cyclic bis(3′-5′)diadenylic acid] | higher titers | Slightly similar results | differences were not observed | more modest | difference was accentuated | slightly decreased | significantly higher | able to promote a protective CTL response | significant | particularly decreased | slightly decreased | higher concentrations | higher concentrations | more modest | slightly decreased |  |  |
| CCOCc1nc2c(N)nc3ccccc3c2n1CC(C)(C)O [R848, reference compound] |  |  |  |  |  |  |  |  |  |  |  |  |  |  |  | lost weight |  |
| B1 |  |  |  |  |  |  |  |  |  |  |  |  |  |  |  | lost weight | no deaths |
